Reference: patent US4532255A, “Amidine compounds and anticomplement agent comprising same” (Torii & Co., Ltd., priority 1980, dated 1985)

Experiments:
C1r = molecular target: T1, C1r (Homo sapiens, UniProt P00736); experiment: Anti-C1 esterase (C1r) activity (hydrolysis of AAME); type: biochemical; conditions: AAME hydrolysis; read-out: Anti-C1 activity, C1r ID50
T1 sequence (P00736 464-705 limits assumed): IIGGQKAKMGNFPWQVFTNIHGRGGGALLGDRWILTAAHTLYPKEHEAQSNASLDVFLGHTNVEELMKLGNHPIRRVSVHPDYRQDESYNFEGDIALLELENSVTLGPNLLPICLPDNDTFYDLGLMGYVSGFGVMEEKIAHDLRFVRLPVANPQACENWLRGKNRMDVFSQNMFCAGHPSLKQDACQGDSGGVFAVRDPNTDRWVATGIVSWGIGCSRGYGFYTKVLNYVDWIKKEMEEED
T1 sequence (P00736 18-463 partner limits assumed): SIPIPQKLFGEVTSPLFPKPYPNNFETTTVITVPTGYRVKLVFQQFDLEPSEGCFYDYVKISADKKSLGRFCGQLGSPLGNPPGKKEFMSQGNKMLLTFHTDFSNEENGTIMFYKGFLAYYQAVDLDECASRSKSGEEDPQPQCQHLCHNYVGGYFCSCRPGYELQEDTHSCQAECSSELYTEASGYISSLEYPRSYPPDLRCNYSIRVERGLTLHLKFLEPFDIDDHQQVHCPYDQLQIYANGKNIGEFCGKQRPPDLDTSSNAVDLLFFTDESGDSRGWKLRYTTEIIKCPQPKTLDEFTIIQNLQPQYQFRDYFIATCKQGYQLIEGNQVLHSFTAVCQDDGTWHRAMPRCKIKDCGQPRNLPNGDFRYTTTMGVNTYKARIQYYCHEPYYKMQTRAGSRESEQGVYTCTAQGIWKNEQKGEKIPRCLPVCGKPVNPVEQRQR
Method: The anti-Cl esterase ([…]) activity was determined according to the method of Okamura et al. [K. Okamura, M. Muramatsu and S. Fujii, Biochem. Biophys.

Kallikrein = experiment: Anti-kallikrein activity (hydrolysis of TAME); type: biochemical; conditions: molar concentration inhibiting 50% of TAME hydrolysis; read-out: Kallikrein ID50
Method: (§1) The anti-trypsin, anti-plasmin, anti-kallikrein and anti-thrombin activities were determined according to the method of Muramatsu et al. [M. Muramatsu, T. Onishi, S. Makino, Y. Hayashi and S. Fujii, J. of Biochem., 58, 214 (1965)]. The data summarized in Table 1 are expressed in terms of molar concentration (ID50) of the test compound which inhibits 50% of the activity of each enzyme to hydrolyze TAME (tosylalginine methyl ester). The compound No. corresponds to the compound number shown in Examples.

Trypsin = molecular target: T2, Trypsin (Bos taurus, UniProt P00760); experiment: Anti-trypsin activity (hydrolysis of TAME); type: biochemical; conditions: for IC50: molar concentration inhibiting 50% of TAME hydrolysis, read-out: Trypsin ID50; for inhibition at 10 µM: at 1×10^-5 M, read-out: Trypsin percentage inhibition
T2 sequence (P00760 24-246): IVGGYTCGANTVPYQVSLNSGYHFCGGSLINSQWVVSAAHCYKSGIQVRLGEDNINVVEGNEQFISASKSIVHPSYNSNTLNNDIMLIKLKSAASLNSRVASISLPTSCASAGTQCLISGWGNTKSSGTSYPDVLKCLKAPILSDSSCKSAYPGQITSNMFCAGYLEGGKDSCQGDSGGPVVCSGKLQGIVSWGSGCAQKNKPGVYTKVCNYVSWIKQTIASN
Method: (§2) The anti-trypsin, anti-plasmin, anti-kallikrein and anti-thrombin activities were determined according to the method of Muramatsu et al. [M. Muramatsu, T. Onishi, S. Makino, Y. Hayashi and S. Fujii, J. of Biochem., 58, 214 (1965)]. […] The compound No. corresponds to the compound number shown in Examples.

Plasmin = Plasmin (Homo sapiens, UniProt P00747); experiment: Anti-plasmin activity (hydrolysis of TAME); type: biochemical; conditions: for IC50: molar concentration inhibiting 50% of TAME hydrolysis, read-out: Plasmin ID50
Method: as §2

C1s = molecular target: T3, C1s (Homo sapiens, UniProt P09871); experiment: biochemical; conditions: ATEE hydrolysis; read-out: Anti-C1 activity, C1s ID50
T3 sequence (P09871 438-688 limits assumed): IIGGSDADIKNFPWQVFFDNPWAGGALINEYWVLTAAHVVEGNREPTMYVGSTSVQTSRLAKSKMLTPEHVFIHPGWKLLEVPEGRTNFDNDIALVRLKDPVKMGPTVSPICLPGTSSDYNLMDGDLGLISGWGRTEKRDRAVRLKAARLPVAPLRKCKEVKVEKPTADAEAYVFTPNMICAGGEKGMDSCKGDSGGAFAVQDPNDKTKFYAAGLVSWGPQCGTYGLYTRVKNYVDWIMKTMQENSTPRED
T3 sequence (P09871 16-437 partner limits assumed): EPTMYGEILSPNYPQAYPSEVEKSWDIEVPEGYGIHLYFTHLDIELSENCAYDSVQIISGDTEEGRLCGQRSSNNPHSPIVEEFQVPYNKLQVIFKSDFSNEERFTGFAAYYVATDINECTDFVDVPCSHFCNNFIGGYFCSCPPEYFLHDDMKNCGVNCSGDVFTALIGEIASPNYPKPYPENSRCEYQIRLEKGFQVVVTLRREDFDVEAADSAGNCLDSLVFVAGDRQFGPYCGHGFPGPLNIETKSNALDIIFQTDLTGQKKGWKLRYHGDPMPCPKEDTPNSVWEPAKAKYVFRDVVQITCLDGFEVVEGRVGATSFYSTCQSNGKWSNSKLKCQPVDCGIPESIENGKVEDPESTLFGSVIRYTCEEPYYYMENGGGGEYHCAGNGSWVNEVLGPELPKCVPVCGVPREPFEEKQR
Method: The anti-Cl esterase (Clr, Cls) activity was determined according to the method of Okamura et al. [K. Okamura, M. Muramatsu and S. Fujii, Biochem. Biophys. […] The figures in Table 2 have the following meanings:
Cls: Molar concentration of the test compound which inhibits 50% of the ability of Cls to hydrolyse ATEE (acetyltyrosin ethyl ester).

Thrombin = Thrombin (Homo sapiens, UniProt P00734); experiment: biochemical; conditions: for IC50: molar concentration inhibiting 50% of TAME hydrolysis, read-out: Thrombin ID50; for inhibition at 10 µM: at 1×10^-5 M, read-out: Thrombin percentage inhibition
Method: as §1

[1] = system: complement mediated hemolysis; experiment: Inhibition of complement mediated hemolysis; type: cell-based

Sequence of Plasmin (P00747 581-810 limits assumed, species assumed): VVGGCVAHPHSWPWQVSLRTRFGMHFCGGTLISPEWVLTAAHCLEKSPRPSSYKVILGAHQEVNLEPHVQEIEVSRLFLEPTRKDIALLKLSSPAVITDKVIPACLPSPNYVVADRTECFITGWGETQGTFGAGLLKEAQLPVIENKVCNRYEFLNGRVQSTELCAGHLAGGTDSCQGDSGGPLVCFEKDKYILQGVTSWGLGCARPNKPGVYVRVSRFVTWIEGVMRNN
Sequence of Plasmin (P00747 97-580 partner limits assumed, species assumed): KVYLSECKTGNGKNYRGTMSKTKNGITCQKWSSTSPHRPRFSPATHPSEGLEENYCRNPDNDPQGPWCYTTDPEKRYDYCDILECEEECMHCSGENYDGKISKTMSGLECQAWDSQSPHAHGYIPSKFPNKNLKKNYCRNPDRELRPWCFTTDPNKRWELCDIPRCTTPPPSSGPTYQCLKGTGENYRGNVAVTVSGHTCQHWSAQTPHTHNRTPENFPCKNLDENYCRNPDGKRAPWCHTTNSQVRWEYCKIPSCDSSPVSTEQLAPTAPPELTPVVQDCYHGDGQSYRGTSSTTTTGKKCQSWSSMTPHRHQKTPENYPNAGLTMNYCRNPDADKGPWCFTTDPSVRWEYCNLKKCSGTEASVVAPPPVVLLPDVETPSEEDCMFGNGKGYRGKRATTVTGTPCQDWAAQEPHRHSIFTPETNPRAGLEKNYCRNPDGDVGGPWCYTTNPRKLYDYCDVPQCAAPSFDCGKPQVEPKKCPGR

IC50 (Kallikrein) [µM] | IC50 (Trypsin) [µM] | IC50 (Plasmin) [µM] | inhibition at 10 µM (Thrombin) [%] | Compound | IC50 (C1r) [µM] | IC50 (C1s) [µM] | IC50 (Thrombin) [µM] | Inhibition of complement mediated hemolysis (%) ([1]; 1 × 10^-4) | Inhibition of complement mediated hemolysis (%) ([1]; 1 × 10^-5) | Inhibition of complement mediated hemolysis (%) ([1]; 1 × 10^-6) | Inhibition of complement mediated hemolysis (%) ([1]; 1 × 10^-7) | inhibition at 10 µM (Trypsin) [%] | inhibition at 10 µM (Plasmin; at 1×10^-5 M, read-out: Plasmin percentage inhibition) [%]
> 10 | – | > 10 | – | Cc1ccccc1C(=O)Oc1ccc2cc(C(=N)N)ccc2c1 [Compound 2, 6-amidino-2-naphthyl 2-methylbenzoate] | – | – | > 10 | – | – | – | – | 38 | –
9 | 0.3 | 2 | – | CC(C)(C)c1ccc(C(=O)Oc2ccc3cc(C(=N)N)ccc3c2)cc1 [Compound 5] | – | – | 3 | – | – | – | – | – | –
100 | 20 | 20 | – | CN(C)c1cccc(C(=O)Oc2ccc3cc(C(=N)N)ccc3c2)c1 [Compound 23, 6-amidino-2-naphthyl 3-dimethylaminobenzoate] | – | – | 10 | – | – | – | – | – | –
50 | 0.3 | 20 | – | CN(C)c1ccc(C(=O)Oc2ccc3cc(C(=N)N)ccc3c2)cc1 [Compound 24, 6-amidino-2-naphthyl 4-dimethylaminobenzoate] | – | – | 60 | – | – | – | – | – | –
– | – | – | – | N=C(N)c1ccc2cc(OC(=O)Cc3ccc(Cl)cc3)ccc2c1 [Compound 44] | > 10 | > 10 | – | 89 | 21 | 0 | 18 | – | –
> 10 | 5 | 2 | 43 | Cc1ccc(CCC(=O)Oc2ccc3cc(C(=N)N)ccc3c2)cc1 [Compound 48] | – | – | – | – | – | – | – | – | –
– | – | – | – | CC(=O)Oc1ccc(CCC(=O)Oc2ccc3cc(C(=N)N)ccc3c2)cc1 [Compound 50] | – | – | – | 49 | 16 | 1 | 11 | – | –
– | – | – | – | N=C(N)c1ccc2cc(OC(=O)CCCc3ccccc3)ccc2c1 [Compound 54, 6-amidino-2-naphthyl 4-phenylbutyrate] | > 10 | > 10 | – | 12 | 10 | 10 | 4 | – | –
> 10 | 2 | 0.5 | 22 | Cc1ccc(C=CC(=O)Oc2ccc3cc(C(=N)N)ccc3c2)cc1 [Compound 58] | – | – | – | – | – | – | – | – | –
1 | 0.1 | 0.6 | – | COc1ccc(C=CC(=O)Oc2ccc3cc(C(=N)N)ccc3c2)cc1OC [Compound 59] | – | – | 6 | – | – | – | – | – | –
> 10 | 3 | 2 | 24 | N=C(N)c1ccc2cc(OC(=O)C=Cc3ccc([N+](=O)[O-])cc3)ccc2c1 [Compound 62, 6-amidino-2-naphthyl 4-nitrocinnamate] | – | – | – | – | – | – | – | – | –
– | – | – | – | N=C(N)c1ccc2cc(OC(=O)COc3ccc(Cl)cc3Cl)ccc2c1 [Compound 70] | > 10 | > 10 | – | 26 | 1 | 0 | 2 | – | –

Compound | IC50 (Kallikrein) [µM] | IC50 (Trypsin) [µM] | IC50 (Plasmin) [µM] | inhibition at 10 µM (Thrombin) [%] | IC50 (C1r) [µM] | IC50 (C1s) [µM] | IC50 (Thrombin) [µM] | Inhibition of complement mediated hemolysis (%) ([1]; 1 × 10^-4) | Inhibition of complement mediated hemolysis (%) ([1]; 1 × 10^-5) | Inhibition of complement mediated hemolysis (%) ([1]; 1 × 10^-6) | Inhibition of complement mediated hemolysis (%) ([1]; 1 × 10^-7) | inhibition at 10 µM (Trypsin) [%] | inhibition at 10 µM (Plasmin; at 1×10^-5 M, read-out: Plasmin percentage inhibition) [%]
N=C(N)c1ccc2cc(OC(=O)c3ccccc3)ccc2c1 [Compound 1, 6-amidino-2-naphthyl benzoate] | 30 | 3 | 2 | – | 0.4 | 0.1 | 5 | 100 | 100 | 91 | 27 | – | –
Cc1ccc(C(=O)Oc2ccc3cc(C(=N)N)ccc3c2)cc1 [Compound 4] | 8 | 1 | 0.5 | – | 0.4 | 0.07 | 20 | – | 85 | 37 | 21 | – | –
CC(=O)Oc1ccccc1C(=O)Oc1ccc2cc(C(=N)N)ccc2c1 [Compound 12] | > 10 | – | – | – | 3 | 3 | > 10 | 87 | 55 | 27 | 3 | 24 | 40
COC(=O)c1ccc(C(=O)Oc2ccc3cc(C(=N)N)ccc3c2)cc1 [Compound 14] | – | 0.3 | 0.5 | – | 7 | 6 | 3 | 61 | 15 | 1 | 3 | – | –
N=C(N)c1ccc2cc(OC(=O)c3ccc([N+](=O)[O-])cc3)ccc2c1 [Compound 18, 6-amidino-2-naphthyl 4-nitrobenzoate] | > 10 | 10 | 3 | – | 4 | 4 | 2 | 92 | 97 | 56 | 20 | – | –
N=C(N)c1ccc2cc(OC(=O)c3ccc(CNC(=O)OCc4ccccc4)cc3)ccc2c1 [Compound 21, 6-amidino-2-naphthyl 4-benzyloxycarbonylaminomethylbenzoate] | 10 | 0.6 | – | – | 0.7 | 0.5 | > 10 | 0 | 66 | 14 | 0 | – | –
CC(=O)Nc1ccc(C(=O)Oc2ccc3cc(C(=N)N)ccc3c2)cc1 [Compound 25, 6-amidino-2-naphthyl 4-acetylaminobenzoate] | 100 | – | – | – | 0.7 | 0.4 | 60 | 64 | 26 | 1 | 0 | – | –
